What is called IC50 is the concentration at which inhibition is half-maximal.

The target of the first assay is T1, human neutrophil elastase (HNE) (Homo sapiens, UniProt P08246).
T1 sequence (P08246 30-267): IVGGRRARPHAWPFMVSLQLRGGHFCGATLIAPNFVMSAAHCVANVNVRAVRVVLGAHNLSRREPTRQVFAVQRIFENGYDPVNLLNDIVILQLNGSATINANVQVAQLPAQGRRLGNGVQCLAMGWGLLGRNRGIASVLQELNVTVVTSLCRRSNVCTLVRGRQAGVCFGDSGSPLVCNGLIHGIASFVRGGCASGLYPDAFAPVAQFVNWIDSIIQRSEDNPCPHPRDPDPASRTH
In words: HNE inhibition assay. Format: biochemical.
Conditions: not given
In turn, `Cc1cccc(C(=O)n2cc(C#N)c3cc(-c4ccsc4)cnc32)c1` [Compound 14f, 1-(3-methylbenzoyl)-5-(thiophen-3-yl)-1H-pyrrolo[2,3-b]pyridine-3-carbonitrile] yielded an IC50 of 42 ± 15 nM.
The same measure, in the same setting: the figure for `Cc1cccc(C(=O)n2cc(C#N)c3cc([N+](=O)[O-])cnc32)c1` [Compound 7c, 1-(3-Methylbenzoyl)-5-nitro-1H-pyrrolo[2,3-b]pyridine-3-carbonitrile] is 400 ± 110 nM; for `Cc1cccc(C(=O)n2cc(C#N)c3cc(-c4cccc(C(F)(F)F)c4)cnc32)c1` [Compound 14b, 1-(3-Methylbenzoyl)-5-(3-(trifluoromethyl)phenyl)-1H-pyrrolo[2,3-b]pyridine-3-carbonitrile] it is 180 ± 70 nM; for `COc1cccc(-c2cnc3c(c2)c(C#N)cn3C(=O)c2cccc(C)c2)c1` [Compound 14d, 5-(3-Methoxyphenyl)-1-(3-methylbenzoyl)-1H-pyrrolo[2,3-b]pyridine-3-carbonitrile] it is 70 ± 15 nM.
In the case of `Cc1cccc(C(=O)n2c(C#N)cc3cccnc32)c1` [Compound 2d, 1-(3-Methylbenzoyl)-1H-pyrrolo[2,3-b]pyridine-2-carbonitrile], the IC50 worked out at 3500 ± 1200 nM.
The compound `COc1ccc2cc(-c3cnc4c(c3)c(C#N)cn4C(=O)c3cccc(C)c3)ccc2c1` [Compound 14e, 5-(6-Methoxynaphthalen-2-yl)-1-(3-methylbenzoyl)-1H-pyrrolo[2,3-b]pyridine-3-carbonitrile] gave an IC50 of 1600 ± 330 nM.
Regarding `Cc1cccc(C(=O)n2cc(C#N)c3cc(-c4cccc(C)c4)cnc32)c1` [Compound 14c, 1-(3-Methylbenzoyl)-5-(m-tolyl)-1H-pyrrolo[2,3-b]pyridine-3-carbonitrile], the half-inhibitory concentration (IC50) worked out at 130 ± 40 nM.
The compound `Cc1cccc(C(=O)n2cc(C#N)c3cc(-c4ccccc4)cnc32)c1` [Compound 14a, 1-(3-Methylbenzoyl)-5-phenyl-1H-pyrrolo[2,3-b]pyridine-3-carbonitrile] had an IC50 of 50 ± 20 nM.
On the same count and under the same terms, the figure for `Cc1cccc(C(=O)n2cc(C#N)c3cc(Br)cnc32)c1` [Compound 7a, 5-Bromo-1-(3-methylbenzoyl)-1H-pyrrolo[2,3-b]pyridine-3-carbonitrile] is 51 ± 14 nM; for `Cc1cccc(C(=O)n2cc(C#N)c3cc(-c4cccnc4)cnc32)c1` [Compound 14g, 1-(3-methylbenzoyl)-5-(pyridin-3-yl)-1H-pyrrolo[2,3-b]pyridine-3-carbonitrile] it is 15 ± 4 nM.
On the same count and under the same terms, the figure for `Cc1cccc(C(=O)n2c(C)c(C#N)c3cccnc32)c1` [Compound 2e, 2-Methyl-1-(3-methylbenzoyl)-1H-pyrrolo[2,3-b]pyridine-3-carbonitrile] is 10800 ± 2200 nM.
For `Cc1cccc(C(=O)n2cc(C#N)c3cc(Cl)cnc32)c1` [Compound 7b, 5-Chloro-1-(3-methylbenzoyl)-1H-pyrrolo[2,3-b]pyridine-3-carbonitrile], the IC50 stood at 160 ± 50 nM.

The same assay, now with this note: ratio of HNE IC50 values.
For the compound `Cc1cccc(C(=O)n2cc(C#N)c3cc([N+](=O)[O-])cnc32)c1` [Compound 7c, 1-(3-Methylbenzoyl)-5-nitro-1H-pyrrolo[2,3-b]pyridine-3-carbonitrile], the “fold less potent than the 5-chloro derivative 7b” value was “about 2 fold”.
For the compound `Cc1cccc(C(=O)n2cc(C#N)c3cc(Br)cnc32)c1` [Compound 7a, 5-Bromo-1-(3-methylbenzoyl)-1H-pyrrolo[2,3-b]pyridine-3-carbonitrile], the “fold more potent than the 5-chloro derivative 7b” value is reported as “about 3 fold”.
